The nature of test [1]: Venous thrombosis: venous stasis under hypercoagulation (Wessler), thrombus removed and weighed. The test is classed as in vivo, male Wistar rats. To be noted: Rattus norvegicus, po; 12.5 mg/kg administered orally, suspension in PEG 400; thrombosis induced 4 hours after treatment. Here is the method:
A venous stasis under hypercoagulation is produced according to the technique described by WESSLER et al. (J. Applied Physiol. 1959, p. 943-946). As in the technique described by J. HAUPMAN et al. (Thrombosis and Haemostasis 43(2), 1980, p. 118), the hypercoagulant used is a solution of activated factor X (Xa) supplied by Flow Laboratories (71 Knat per 12.5 ml of physiological serum).
The study is performed on unfasted male Wistar rats weighing 250 to 280 g, divided into groups of 10 animals each. The products to be tested are administered orally as a suspension in PEG 400. A thrombosis is induced 4 hours after this treatment and the thrombus formed is removed and weighed.
The results obtained at doses of 3 mg/kg or 12.5 mg/kg, administered orally, have been collated in Table II. The results obtained with the known products of the above-mentioned prior art have also been collated in this Table.

Assay in test [2]: as above
To be noted: 50 mg/kg administered orally. Format: in vivo, male Wistar rats.

The values below come from US5101048A, “β-D-phenylthioxylosides, their method of preparation and their use as therapeutic agents” (Fournier Industrie et Sante, priority 1988, dated 1992).

What is called inhibition in vivo is the change of the read-out against control, counted positive when it falls. A high value points to a strong effect. A word on the % inhibition: it is the percentage by which the read-out fell short of the control. Read a low % inhibition as little suppression. In test [1], `O[C@@H]1[C@@H](O)[C@H](Sc2ccccc2)SC[C@H]1O` [Example 9, phenyl 1,5-dithio-β-D-xylopyranoside] returned an inhibition in vivo at 12.5 mg/kg of 11%. Also, the “% inhibition at 50 mg/kg (footnote)” value in test [2] was 82%.
